# Results published in a melting point compilation (Tetko et al.).
row,Structure (SMILES),melting point [°C]
1,CC(C)N1C2CCC1CC(O)C2 (stereo not drawn),90 to 92
2,CC(C)(N)CNC(=O)OC(C)(C)C,68 to 70
3,O=c1[nH]c(S)nc2c1cnn2-c1cccc(Cl)c1,255 to 257
4,CCC(CC)n1nc(C(=O)O)cc1C,110 to 112
5,CCOC(=O)c1cc(F)ccc1S(=O)(=O)Cl,69 to 71
6,Nc1cccc(C(=O)Nc2cnccn2)c1,135 to 137
7,ON=Cc1ccncn1,150 to 152
8,O=C1CC2(Cc3ccccc3C2)C(=O)O1,164 to 166
9,CCOc1ccc(OCC(=O)O)cc1,125 to 130
10,NC(=S)CC1CC1,68 to 70
11,Cc1c(-c2cccnc2)noc1N,177 to 179
12,O=C(O)c1cccc(-n2nccc2C(F)(F)F)c1,158 to 160
13,Clc1ccc(-c2nc3ccccc3[nH]2)cn1,198 to 200
14,COc1ccc(C(=O)O)nc1I,189 to 191
15,COc1ccc(C2(C)NC(=O)NC2=O)cc1OC (stereo not drawn),177 to 179
16,CC(O)C(C)c1ccc2ccccc2n1 (stereo not drawn),69 to 71
17,CC1(C)CCCCC1CC(=O)O (stereo not drawn),41 to 43
18,O=C(O)c1ccn(-c2cccc(C(F)(F)F)c2)n1,155 to 157
19,Nc1ccc(-c2cn3cccnc3n2)cc1,251 to 253
20,O=S1(=O)C=CC(Br)C1 (stereo not drawn),54 to 55
21,O=c1[nH]c(S)nc2c1cnn2-c1ccccc1,110 to 113
22,CC(C)c1ccsc1C(=O)O,97 to 99
23,COc1cccc(C(=O)O)n1,133 to 135

row,Structure (SMILES),melting point [°C]
1,O=S(=O)(CCO)c1ccc(Br)cc1,63 to 65
2,Cn1ccc(CCl)cc1=O,64 to 66
3,N#CC1=C(Cl)CCCC1,38 to 40
4,Cc1n[nH]c(C)c1SCC(=O)O,153 to 155
5,COC(=O)c1ccc(COc2ccc(C=O)cc2OC)cc1,129 to 131
6,c1c[nH]c(CN2CCNCC2)n1,153 to 155
7,O=C(O)C1CC(O)CN1C(=O)COc1ccccc1 (stereo not drawn),157 to 159
8,Cn1cc(-c2cccc(C(=O)O)c2)cn1,213 to 215
9,COC(=O)c1cc(N)cc([N+](=O)[O-])c1,159 to 161
10,N#CCC(=O)c1ccc(Cl)cc1F,79 to 81
11,Cc1ccc(CCC(=O)O)o1,58 to 60
12,COC(=O)CC1=NC(=O)CS1,184 to 186
13,CN(C)S(=O)(=O)CCC(=O)O,121 to 123
14,Nc1cc(-c2ccc(Br)s2)n[nH]1,141 to 143
15,Cc1ccc(S(=O)(=O)N2CCCCC2)cc1N,106 to 110
16,Fc1cccc2[nH]c(C3CCNCC3)nc12,229 to 231
17,O=C(O)c1nc2[nH]c(-c3ccccc3)cc(=O)n2n1,282 to 284
18,Cc1c(C(=O)O)sc2nnc(S)n12,275 to 277
19,COC(=O)N1CCc2cc(N)ccc21,149 to 151
20,O=C1CCC(=O)N(c2ccc(C(=O)O)cc2)N1,248 to 250
21,Nc1ccc(-c2ccccn2)cn1,89 to 91
22,CC(=O)c1cn(C)nc1C,72 to 74
23,CC(C)CC1NC(C(=O)O)CS1 (stereo not drawn),159 to 161

row,Structure (SMILES),melting point [°C]
1,Cc1nn(Cc2ccccc2)c(Cl)c1C(=O)O,180 to 182
2,O=C(O)c1cccc(S(=O)(=O)Cc2ccccc2)c1,214 to 216
3,Cc1cc(C)c2c(N)nsc2n1,180 to 182
4,O=C(O)CSCc1ccc(F)cc1,71 to 73
5,O=C(CCl)c1ccc(Oc2ccccc2)cc1,54 to 56
6,CC(Oc1ccccc1Cc1ccccc1)C(=O)O (stereo not drawn),91 to 93
7,NNC(=O)c1ccc(S(=O)(=O)N2CCCC2)cc1,199 to 201
8,Cc1ccc(-c2cc(C(=O)O)n[nH]2)s1,209 to 211
9,CC1(c2ccc(C(F)(F)F)cc2)NC(=O)NC1=O (stereo not drawn),169 to 171
10,Cc1ccc(Cl)c2ccc(=O)[nH]c12,254 to 256
11,CON(C)S(=O)(=O)c1cc([N+](=O)[O-])ccc1Cl,123 to 125
12,NC(=S)Cc1cn2ccccc2n1,144 to 146
13,Cc1cc(C(C)(C)C)cc(C)c1CCNC(=O)CCl,114 to 116
14,CC(C)(C)c1ncc(C(=O)O)s1,204 to 206
15,CN(C)c1ccc(C2=CCNC2)cc1,99 to 101
16,O=C(O)c1cc(S(=O)(=O)Cl)c(F)cc1F,129 to 131
17,Nc1ccccc1NC(=O)c1ccccc1,149 to 151
18,Nc1ccc(SC(F)(F)F)c(F)c1,33 to 35
19,CCC(=O)Nc1ccc(Cl)c(N)c1,105 to 107
20,Cc1cc2oc(=O)cc(CCl)c2cc1C(C)C,132 to 134
21,COc1ccc(-c2n[nH]c(S)nc2=O)cc1,284 to 286
22,Cc1cc(C)nc(NCc2cccc(C(=O)O)c2)n1,224 to 226
23,COc1ccc2ccccc2c1-c1cc(CBr)on1,85 to 87

# Now from value to molecule:
row,melting point [°C],Structure (SMILES)
1,136 to 139,CC(Cl)C(=O)Nc1ccc(F)c(F)c1F (stereo not drawn)
2,116 to 118,Cc1cc(C(=O)CCl)c(C)n1-c1cccc(Cl)c1
3,198 to 202,NC(=O)NC(Cc1c[nH]c2ccccc12)C(=O)O (stereo not drawn)
4,163 to 165,O=C1CN(C(=O)c2ccc(Cl)nc2)CCN1
5,134 to 136,Cc1c(Br)cc(S(C)(=O)=O)cc1C(=O)O
6,108 to 110,CC(C)(C)OC(=O)NC1CCN(C2CCNC2)CC1 (stereo not drawn)
7,159 to 161,COc1ccc2[nH]nc(N)c2c1
8,205 to 207,Cc1ccccc1-n1nc(C(=O)O)c2c1CCC2
9,145 to 148,CC(C)CN1C(=O)NC(=O)C1=O
10,159 to 161,NNC(=S)Nc1ccccc1F
11,199 to 201,O=C(O)c1cc(-c2ccccc2)ccc1Cl
12,131 to 133,NCc1nnc2ccccn12
13,96 to 98,Nc1onc(C2CCC2)c1-c1ccc2c(c1)OCO2
14,158 to 160,Cc1ccc(N)cc1S(=O)(=O)Nc1cccc(Cl)c1
15,257 to 259,O=C(O)CCC(=O)Nc1nccs1
16,66 to 68,CCOC(=O)C=Cc1ccc2c(c1)OCO2
17,218 to 220,O=c1cc2c(n[nH]1)CCOC2

row,melting point [°C],Structure (SMILES)
1,187 to 189,CC(=O)Nc1cc(NC(C)=O)cc(C(=O)O)c1
2,204 to 206,O=C(Nc1ccccc1F)Nc1cccc2c1CCCN2
3,131 to 133,CC(C)(C)NS(=O)(=O)c1ccccc1CN
4,181 to 185,NC(=O)N1CCCC(C(=O)O)C1 (stereo not drawn)
5,221 to 223,Cc1c(C(=O)O)cccc1N1CCNC1=O
6,68 to 70,Cc1cc(N)n(Cc2ccccc2)n1
7,88 to 90,Cc1ccc(C(=O)C(O)c2ccc(C)cc2)cc1 (stereo not drawn)
8,119 to 121,CC1(C(=O)O)CCCN1C(=O)OCc1ccccc1 (stereo not drawn)
9,168 to 170,CC(Oc1ccc(C=CC(=O)O)cc1F)c1ccccc1 (stereo not drawn)
10,239 to 241,Nc1ncnc2sc3c(c12)CCCC3
11,96 to 98,CNc1ccccc1C(=O)NCCc1ccc(OC)cc1
12,137 to 139,CC1CCC(C(C)C)C(OC(=O)CSc2ccccc2C(=O)O)C1 (stereo not drawn)
13,114 to 116,O=CN1CCN(C(=NS(=O)(=O)c2ccccc2)C(F)(F)F)CC1
14,194 to 196,O=C(O)c1cccc(CS(=O)(=O)c2ccccc2)c1
15,274 to 276,CN1CCN(C(=O)c2ccccc2C(=O)O)CC1
16,88 to 90,CCC(NC(=O)OC(C)(C)C)C(=O)O (stereo not drawn)
17,148 to 150,CN(C)S(=O)(=O)c1ccnc(N)c1
